US12662451B2, “Chemical compounds and uses thereof” (GLAXOSMITHKLINE INTELLECTUAL PROPERTY (NO.4) LIMITED, priority 2023, dated 2026)
Read-outs that look alike come from different tables or passages of the source.

Key:
[1] = test system: SW48 human colorectal cancer cells (MSI-H cancer cells); assay: SW48 cell viability, CellTiter-Glo, 120 hours (Example B); details: for CC50: Homo sapiens
[2] = biological target: T1, recombinant full-length WRN protein (1-1432) (Homo sapiens, UniProt Q14191); assay: WRN unwinding activity, fluorogenic 384-well assay (Example A); assay type: biochemical; details: WRN unwinding activity, Table 2; for IC50: 4 hr, read-out: 4 hr UNW pIC50 (converted)
T1 construct: recombinant full-length WRN protein (1-1432)
T1 sequence (Q14191 whole entry): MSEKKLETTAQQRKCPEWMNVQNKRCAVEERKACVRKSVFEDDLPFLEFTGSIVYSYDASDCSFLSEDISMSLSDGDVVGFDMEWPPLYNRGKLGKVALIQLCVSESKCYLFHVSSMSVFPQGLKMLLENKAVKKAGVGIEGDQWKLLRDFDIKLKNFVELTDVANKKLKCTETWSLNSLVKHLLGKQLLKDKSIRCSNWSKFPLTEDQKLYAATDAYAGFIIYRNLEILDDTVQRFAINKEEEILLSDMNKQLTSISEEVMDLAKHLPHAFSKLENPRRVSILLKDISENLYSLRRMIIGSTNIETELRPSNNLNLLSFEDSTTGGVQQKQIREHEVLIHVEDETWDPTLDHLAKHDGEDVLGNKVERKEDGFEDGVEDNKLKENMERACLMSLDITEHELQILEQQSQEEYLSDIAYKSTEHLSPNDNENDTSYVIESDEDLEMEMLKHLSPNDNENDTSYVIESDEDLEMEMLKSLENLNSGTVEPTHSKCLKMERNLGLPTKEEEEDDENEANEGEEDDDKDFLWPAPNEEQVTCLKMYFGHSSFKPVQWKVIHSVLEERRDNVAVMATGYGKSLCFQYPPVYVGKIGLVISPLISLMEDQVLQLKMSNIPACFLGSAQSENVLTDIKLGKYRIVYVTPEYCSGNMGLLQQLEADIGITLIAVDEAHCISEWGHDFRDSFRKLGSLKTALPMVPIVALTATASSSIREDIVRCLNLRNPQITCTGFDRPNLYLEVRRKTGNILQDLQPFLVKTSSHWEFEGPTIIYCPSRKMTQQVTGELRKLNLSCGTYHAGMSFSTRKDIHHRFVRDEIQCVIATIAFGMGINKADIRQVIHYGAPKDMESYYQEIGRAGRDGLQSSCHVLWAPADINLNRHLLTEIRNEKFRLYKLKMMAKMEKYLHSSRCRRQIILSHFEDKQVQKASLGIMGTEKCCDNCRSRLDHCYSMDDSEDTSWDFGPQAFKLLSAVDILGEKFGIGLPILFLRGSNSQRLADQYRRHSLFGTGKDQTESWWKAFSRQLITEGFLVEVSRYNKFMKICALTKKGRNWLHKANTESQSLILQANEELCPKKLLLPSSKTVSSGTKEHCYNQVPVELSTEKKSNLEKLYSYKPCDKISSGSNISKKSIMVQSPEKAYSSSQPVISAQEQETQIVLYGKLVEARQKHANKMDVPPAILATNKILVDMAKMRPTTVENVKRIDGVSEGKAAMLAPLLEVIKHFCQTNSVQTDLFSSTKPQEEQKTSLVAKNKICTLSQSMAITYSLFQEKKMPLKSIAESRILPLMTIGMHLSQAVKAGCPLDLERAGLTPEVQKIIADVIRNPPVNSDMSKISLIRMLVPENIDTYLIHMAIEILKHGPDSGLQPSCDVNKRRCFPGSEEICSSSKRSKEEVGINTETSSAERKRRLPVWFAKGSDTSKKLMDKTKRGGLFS
Outline: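 Read-out is end-point unwinding of a fluorophore/quencher duplex (ex 525, em 598 nm) after 60 min with 200 μM ATP and 12 nM DNA (2× stocks), EDTA stop. Compound first sat 4 h with 200 pM WRN (2× stock) in pH 8.0 Tris buffer; four-parameter fit gives pIC50.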

[3] = Cell culture media unbound percentage and stability by rapid equilibrium dialysis (Example C); assay type: in vitro ADME; details: bovine, cell assay medium (RPMI-1640 with 10% fetal bovine serum), pH 7.4, rapid equilibrium dialysis, 4 hours at 37° C., read-out: Cell Culture Media Binding (% unbound)
Method: (§1) It was observed that the compounds of the present disclosure are bound to cell assay media to various degrees, which would affect the cellular potency analysis in Example B. To measure free drug potency, concentrations used in the cell assays were corrected with the measured free fraction determined in the cell assay media. Compounds were incubated in a rapid equilibrium dialysis (RED) at a nominal concentration of 1 μM, using a dialysis buffer of phosphate-buffered saline (PBS, 100 mM sodium phosphate+150 mM sodium chloride, pH 7.4). The test compound was spiked into the medium. Aliquots were added to the donor wells of a RED plate in triplicate, and blank PBS was added to each receiver well, at volumes recommended by the manufacturer. Plates were incubated with shaking at 200 rpm for 4 hours at 37° C. The resultant samples were analysed by LC-MS/MS using a specific and sensitive method. Results were reported as analyte:internal standard peak area ratios (PARs), and the percent unbound was calculated with the following equation:
[formula] where D=the matrix dilution factor (D=1 for media); Apparent Fu=Crec/Cdon; Crec=PAR in receiver samples; Cdon=PAR in donor samples. Percent stability was calculated by:
(§2) [formula] where Cfinal=PAR in the T=240 minute sample; Cinitial=PAR in the T=0 minute sample. Cell culture media unbound percentage and calculated free drug potency of selected compounds along with their measured potency from Example B are shown in Table 3.

[4] = test system: SW48 human colorectal cancer cells; assay: Calculated free drug potency in SW48 cell assay, corrected with media free fraction (Example C); assay type: cell-based; details: for CC50: Homo sapiens, SW48, SW48 pCC50 corrected with measured free fraction in cell assay media; for Free Drug SW48 pCC50: SW48 pCC50 corrected with measured free fraction in cell assay media
Method: as §1, §2

[5] = SW48, 120 h, read-out: SW48 pCC50, SW48 cell viability, 120 hours incubation (converted), Table 2
[6] = SW48, read-out: SW48 pCC50, measured potency from Example B, as repeated in Table 3 (converted)
[7] = SW48 cell viability, 120 hours incubation, Table 2
[8] = measured potency from Example B, as repeated in Table 3

SMILES	IC50 [2] [nM]	fraction unbound at 4 h, 1 µM [3]	CC50 [1, 5] [nM]	CC50 [1, 6] [nM]	CC50 [4] [nM]	SW48 pCC50 [1, 7]	SW48 pCC50 [1, 8]	Free Drug SW48 pCC50 [4]	4 hr UNW pIC50 [2]
CN(c1ccc([C@H]2CCC[C@@H](C(=O)Nc3ccc(C(F)(F)F)cc3F)[C@@H]2C(=O)O)cc1)S(=O)(=O)c1ccc2c(c1)ncn2C (single isomer, unassigned) [Example 88]	2.51	0.0297	398	398	11.7				
Cc1nc2cc(S(=O)(=O)N(C)c3ccc([C@H]4CCC[C@@H](C(=O)Nc5ccc(C(F)(F)F)cc5F)[C@@H]4C(=O)O)cc3)cnc2n1C [Example 124, (1R,2R,6S)-2-((2-fluoro-4-(trifluoromethyl)phenyl)carbamoyl)-6-(4-((N,2,3-trimethyl-3H-imidazo[4,5-b]pyridine)-6-sulfonamido)phenyl)cyclohexane-1-carboxylic acid]	3.98	0.097	501	501	49				
CN(c1ccc([C@H]2CCC[C@@H](C(=O)Nc3ccc(C(F)(F)F)cc3F)[C@@H]2C(=O)O)cc1)S(=O)(=O)c1ccc(-c2ccn(C)n2)cc1 [Example 99, (1R,2R,6S)-2-((2-fluoro-4-(trifluoromethyl)phenyl)carbamoyl)-6-(4-((N-methyl-4-(1-methyl-1H-pyrazol-3-yl)phenyl)sulfonamido)phenyl)cyclohexane-1-carboxylic acid]						6.1	6.1	7.77	8.6
CN(c1ccc([C@H]2CCC[C@@H](C(=O)Nc3ccc(C(F)(F)F)cc3F)[C@@H]2C(=O)O)cc1)S(=O)(=O)c1cc(I)c2occc2c1 [Example 117, (1R,2R,6S)-2-((2-fluoro-4-(trifluoromethyl)phenyl)carbamoyl)-6-(4-((7-iodo-N-methylbenzofuran)-5-sulfonamido)phenyl)cyclohexane-1-carboxylic acid]	63.1		3980				5.4	8.36	
Cc1nc2cc(S(=O)(=O)N(C)c3ccc([C@H]4C[C@@H](O[C@H]5CCOC5)C[C@@H](C(=O)Nc5ccc(C(F)(F)F)cc5F)[C@@H]4C(=O)O)cc3)ccc2n1C (stereo in doubt) [Example 324, (1R*,2R*,4R*,6S*)-2-((2-fluoro-4-(trifluoromethyl)phenyl)carbamoyl)-4-(((S)-tetrahydrofuran-3-yl)oxy)-6-(4-((N,1,2-trimethyl-1H-benzo[d]imidazole)-5-sulfonamido)phenyl)cyclohexane-1-carboxylic acid]						5.1	5.1	5.60	7.2
Cc1nc2cc(S(=O)(=O)N(C)c3ccc([C@H]4CCC[C@@H](C(=O)Nc5ccc(C(F)(F)F)cc5F)[C@@H]4C(=O)O)cc3)cc(C3CCCN(C)C3)c2n1C (relative stereo) [Example 270, (1R,2R,6S)-2-((2-fluoro-4-(trifluoromethyl)phenyl)carbamoyl)-6-(4-((N,1,2-trimethyl-7-((S*)-1-methylpiperidin-3-yl)-1H-benzo[d]imidazole)-5-sulfonamido)phenyl)cyclohexane-1-carboxylic acid]						6.5	6.5	7.18	9.0
O=C(O)[C@@H]1[C@@H](c2ccc(-c3ccc(F)nc3)cc2)CCC[C@H]1C(=O)Nc1ccc(C(F)(F)F)cc1F [Example 25, (1R,2R,6S)-2-((2-fluoro-4-(trifluoromethyl)phenyl)carbamoyl)-6-(4-(6-fluoropyridin-3-yl)phenyl)cyclohexane-1-carboxylic acid]	1.58		5010						
Cc1nc2cc(S(=O)(=O)N(C)c3ccc([C@H]4CCC[C@@H](C(=O)Nc5ccc(C(F)(F)F)cc5F)[C@@H]4C(=O)O)cc3)ccc2n1C (single isomer, unassigned) [Example 84]	158					5.3			

Now from value to molecule, other results behind:

IC50 [2] [nM]	fraction unbound at 4 h, 1 µM [3]	SMILES	CC50 [1, 5] [nM]	CC50 [1, 6] [nM]	CC50 [4] [nM]	SW48 pCC50 [1, 7]	SW48 pCC50 [1, 8]	Free Drug SW48 pCC50 [4]	4 hr UNW pIC50 [2]
10		Cc1nc2cc(S(=O)(=O)N(C)c3ccc([C@H]4C[C@@H](N5CCC[C@@H](F)C5)C[C@@H](C(=O)Nc5ccc(C(F)(F)F)cc5F)[C@@H]4C(=O)O)cc3)ccc2n1C (single isomer, unassigned) [Example 347, rel-(1R*,2R*,4S*,6S*)-2-((2-fluoro-4-(trifluoromethyl)phenyl)carbamoyl)-4-((R)-3-fluoropiperidin-1-yl)-6-(4-((N,1,2-trimethyl-1H-benzo[d]imidazole)-5-sulfonamido)phenyl)cyclohexane-1-carboxylic acid]				5.2	5.2	6.17	
1.58	0.224	Cc1nc2cc(S(=O)(=O)N(C)c3ccc([C@H]4CCC[C@@H](C(=O)Nc5ccc(C(F)(F)F)cc5F)[C@@H]4C(=O)O)cc3)cc([C@H]3CCCN(C)C3)c2n1C (relative stereo) [Example 271, (1R,2R,6S)-2-((2-fluoro-4-(trifluoromethyl)phenyl)carbamoyl)-6-(4-((N,1,2-trimethyl-7-((R*)-1-methylpiperidin-3-yl)-1H-benzo[d]imidazole)-5-sulfonamido)phenyl)cyclohexane-1-carboxylic acid]	79.4	79.4	17.8				
31.6		Cc1nc2cc(S(=O)(=O)N(C)c3ccc([C@H]4C[C@@H]5OCC[C@@H]5[C@@H](C(=O)Nc5ccc(C(F)(F)F)cc5F)[C@@H]4C(=O)O)cc3)ccc2n1C (single isomer, unassigned) [Example 158]				5.4	5.4	6.03	
	0.0623	Cc1nc2cc(S(=O)(=O)N(C)c3ccc([C@H]4C[C@H](N5CCC(F)(F)CC5)C[C@@H](C(=O)Nc5ccc(C(F)(F)F)cc5F)[C@@H]4C(=O)O)cc3)ccc2n1C (relative stereo) [Example 342, rel-(1R,2R,4S,6S)-4-(4,4-difluoropiperidin-1-yl)-2-((2-fluoro-4-(trifluoromethyl)phenyl)carbamoyl)-6-(4-((N,1,2-trimethyl-1H-benzo[d]imidazole)-5-sulfonamido)phenyl)cyclohexane-1-carboxylic acid]	6310	6310	389				
2.51		Cc1nc2cc(S(=O)(=O)N(C)c3ccc([C@H]4C[C@@H](N5CCC[C@@H](F)C5)C[C@@H](C(=O)Nc5ccc(C(F)(F)F)cc5F)[C@@H]4C(=O)O)cc3)ccc2n1C (single isomer, unassigned) [Example 376, rel-(1R*,2R*,4R*,6S*)-2-((2-fluoro-4-(trifluoromethyl)phenyl)carbamoyl)-4-((R)-3-fluoropiperidin-1-yl)-6-(4-((N,1,2-trimethyl-1H-benzo[d]imidazole)-5-sulfonamido)phenyl)cyclohexane-1-carboxylic acid]				7.1	7.1	7.70	
7.94		Cc1nc2cc(S(=O)(=O)N(C)c3ccc([C@H]4C[C@@H](N5CCOCC5)C[C@@H](C(=O)Nc5ccc(C(F)(F)F)cc5F)[C@@H]4C(=O)O)cc3)ccc2n1C (single isomer, unassigned) [Example 340]				5.1	5.1	5.99	
6.31		Cc1nc2cc(S(=O)(=O)N(C)c3ccc([C@@H]4C[C@@H]5COC[C@@H]5[C@@H](C(=O)Nc5ccc(C(F)(F)F)cc5F)[C@@H]4C(=O)O)cc3)ccc2n1C (single isomer, unassigned) [Example 390]				5.7	5.7	6.49	
3980		Cc1nc2cc(S(=O)(=O)N(C)c3ccc([C@@H]4C[C@@H](N5CCC(F)(F)C5)C[C@H](C(=O)Nc5ccc(C(F)(F)F)cc5F)[C@H]4C(=O)O)cc3)ccc2n1C (stereo in doubt) [Example 303, rel-(1R,2R,4S,6S)-4-(3,3-difluoropyrrolidin-1-yl)-2-((2-fluoro-4-(trifluoromethyl)phenyl)carbamoyl)-6-(4-((N,1,2-trimethyl-1H-benzo[d]imidazole)-5-sulfonamido)phenyl)cyclohexane-1-carboxylic acid]	25100						
